Data as given in patent US20260193271A1, “PAN-KRAS INHIBITOR COMPOUND” (ADLAI NORTYE BIOPHARMA CO., LTD., priority 2022, published 2026).

Legend:
[1] = tested on: AsPC-1 (G12D); test: In vitro cell proliferation inhibition test (CellTiter-Glo), AsPC-1; format: cell-based; conditions: KRAS (p.G12D), 72 h co-incubation
From the text: (§1) Test Example 1: In Vitro Cell Proliferation Inhibition Test
(§2) Due to the diversity of RAS mutations and in order to evaluate the activity of compounds in different RAS mutation cell lines, we selected KRAS^WT, KRAS^G12C, KRAS^G12D, KRAS^G12V and BRAF mutation cell lines (see the table below) for in vitro activity evaluation and screening of compounds.
(§3) Protocol: CellTiter-Glo® Cell Luminescent Viability Assay (Promega)
(§4) According to the doubling time of different cell lines, different numbers of cells (1000-5000 cells/well) were seeded in 96-well plates containing 180 μl of corresponding culture medium and cultured overnight in a cell culture incubator at 37° C. with 5% CO2. On the second day, the test compound was pre-diluted 3-fold with culture medium, with the highest concentration being 100 μM, for a total of 10 concentration gradients; then 20 μl of culture medium containing different concentrations of the compound was added to the cells in the 96-well plate to ensure that the final concentration of the compound was up to 10 μM, with 10 concentration gradients of 3-fold dilution. After the cells and compounds were co-incubated for 72 h, the 96-well plate was removed from the incubator and equilibrated at room temperature for 30 min. Then, 25 μl of CellTiter-Glo® Reagent was added to each well and mixed thoroughly. The mixture was incubated at room temperature for 10 min, and then 100 μl of the sample was transferred to a white 96-well plate (OptiPlate™-96, PerkinElmer). The […] signal value was read using a multi-function microplate reader (SpectraMax® i3x, Molecular devices). The signal values were then standardized, and the curve was fitted using a four-parameter regression equation to calculate the half maximal inhibitory concentration (IC50) of the compound on the cell line.

[2] = tested on: SW480 (G12V); test: In vitro cell proliferation inhibition test (CellTiter-Glo), SW480; format: cell-based; conditions: SW480 colon cell line, KRAS (p.G12V), 72 h co-incubation
From the text: as §1, §2, §3, §4

[3] = Homo sapiens, ASPC1, AsPC-1 pancreas cell line

| Molecule | IC50 [1, 3] | IC50 ([2]; Homo sapiens) | IC50 ([1]; AsPC-1 pancreas cell line) | IC50 [2] |
| --- | --- | --- | --- | --- |
| CCn1c(-c2cc(-c3ccc4c(c3)CCN(C)C4)cnc2[C@H](C)OC)c2c3cc(ccc31)-c1csc(n1)C[C@H](NC(=O)[C@H]1[C@H](C)[C@@H]1C)C(=O)N1CCC[C@H](N1)C(=O)OCC(C)(C)C2 (atropisomer, axis not shown) [Compound 3, (1r,2R,3S)-N-((6^3S,4S,Z)-1^1-ethyl-1^2-(2-((S)-1-methoxyethyl)-5-(2-methyl-1,2,3,4-tetrahydroisoquinolin-6-yl)pyridin-3-yl)-10,10-dimethyl-5,7-dioxo-6^1,6^2,6^3,6^4,6^5,6^6-hexahydro-1^1H-8-oxa-2(4,2)-thiazola-1(5,3)-indola-6(1,3)-pyridazinacycloundecaphane-4-yl)-2,3-dimethylcyclopropane-1-carboxamide] | 0.18 nM | 0.33 nM |  |  |
| CCn1c(-c2cc(-c3cc(CN4CCOCC4)on3)cnc2[C@H](C)OC)c2c3cc(ccc31)-c1csc(n1)C[C@H](NC(=O)[C@H]1C[C@@H]1C)C(=O)N1CCC[C@H](N1)C(=O)OCC(C)(C)C2 (atropisomer, axis not shown) [Compound 22, (1S,2S)-N-((6^3S,4S,Z)-1^1-ethyl-1^2-(2-((S)-1-methoxyethyl)-5-(5-(morpholinomethyl)isoxazol-3-yl)pyridin-3-yl)-10,10-dimethyl-5,7-dioxo-6^1,6^2,6^3,6^4,6^5,6^6-hexahydro-1^1H-8-oxa-2(4,2)-thiazola-1(5,3)-indola-6(1,3)-pyridazinacycloundecaphane-4-yl)-2-methylcyclopropane-1-carboxamide] | 11 nM | 10 nM |  |  |
| (1r,2R,3S)-N-((63S,4S,Z)-1^1-(2,2-difluoroethyl)-1^2-(2-((S)-1-methoxyethyl)-5-(2-(morpholinomethyl)pyrimidin-5-yl)pyridin-3-yl)-10,10-dimethyl-5,7-dioxo-6^1,6^2,6^3,6^4,6^5,6^6-hexahydro-1^1H-8-oxa-2(4,2)-thiazola-1(5,3)-indola-6(1,3)-pyridazinacycloundecaphane-4-yl)-2,3-dimethylcyclopropane-1-carboxamide [Compound 48] |  |  | 0.54 nM | 0.51 nM |
| (1S,2S)-N-((6^3S,4S,Z)-1^1-ethyl-1^2-(6′-((S)-1-methoxyethyl)-5-(morpholinomethyl)-[2,3′-bipyridin]-5′-yl)-10,10-dimethyl-5,7-dioxo-6^1,6^2,6^3,6^4,6^5,6^6-hexahydro-1^1H-8-oxa-2(4,2)-thiazola-1(5,3)-indola-6(1,3)-pyridazinacycloundecaphane-4-yl)-2-methylcyclopropane-1-carboxamide [Compound 12′] |  |  | 814 nM | 319 nM |
| (1S,2S)-N-((6^3S,4S,Z)-1^1-ethyl-1^2-(2-((S)-1-methoxyethyl)-5-(5-(morpholinomethyl)pyrimidin-2-yl)pyridin-3-yl)-10,10-dimethyl-5,7-dioxo-6^1,6^2,6^3,6^4,6^5,6^6-hexahydro-1^1H-8-oxa-2(4,2)-thiazola-1(5,3)-indola-6(1,3)-pyridazinacycloundecaphane-4-yl)-2-methylcyclopropane-1-carboxamide [Compound 14′] |  |  | 1180 nM | 633 nM |
| CCn1c(-c2cc(-c3cc([C@@H]4CN(C)CCO4)on3)cnc2[C@H](C)OC)c2c3cc(ccc31)-c1csc(n1)C[C@H](NC(=O)[C@H]1[C@H](C)[C@@H]1C)C(=O)N1CCC[C@H](N1)C(=O)OCC(C)(C)C2 (atropisomer, axis not shown) [Compound 27, (1r,2R,3S)-N-((6^3S,4S,Z)-1^1-ethyl-1^2-(2-((S)-1-methoxyethyl)-5-(5-((S)-4-methylmorpholin-2-yl)isoxazol-3-yl)pyridin-3-yl)-10,10-dimethyl-5,7-dioxo-6^1,6^2,6^3,6^4,6^5,6^6-hexahydro-1^1H-8-oxa-2(4,2)-thiazola-1(5,3)-indola-6(1,3)-pyridazinacycloundecaphane-4-yl)-2,3-dimethylcyclopropane-1-carboxamide] | 1.1 nM | 1.8 nM |  |  |
| (1S,2S)-N-((6^3S,4S,Z)-1^1-ethyl-1^2-(6′-((S)-1-methoxyethyl)-6-(morpholinomethyl)-[2,3′-bipyridin]-5′-yl)-10,10-dimethyl-5,7-dioxo-6^1,6^2,6^3,6^4,6^5,6^6-hexahydro-1^1H-8-oxa-2(4,2)-thiazola-1(5,3)-indola-6(1,3)-pyridazinacycloundecaphane-4-yl)-2-methylcyclopropane-1-carboxamide [Compound 13′] |  |  | 302 nM | 236 nM |
| CCn1c(-c2cc(-c3cccc(CN4CCOCC4)n3)cnc2[C@H](C)OC)c2c3cc(ccc31)-c1csc(n1)C[C@H](NC(=O)C1C[C@@H]1C)C(=O)N1CCC[C@H](N1)C(=O)OCC(C)(C)C2 (stereo partly drawn) [Compound 13, (1S,2S)-N-((6^3S,4S,Z)-1^1-ethyl-1^2-(6′-((S)-1-methoxyethyl)-6-(morpholinomethyl)-[2,3′-bipyridin]-5′-yl)-10,10-dimethyl-5,7-dioxo-6^1,6^2,6^3,6^4,6^5,6^6-hexahydro-1^1H-8-oxa-2(4,2)-thiazola-1(5,3)-indola-6(1,3)-pyridazinacycloundecaphane-4-yl)-2-methylcyclopropane-1-carboxamide] | 2.5 nM | 2 nM |  |  |
| CCn1c(-c2cc(-c3cc(C4CN(C)CCO4)on3)cnc2C(C)OC)c2c3cc(ccc31)-c1csc(n1)CC(NC(=O)C1C(C)C1C)C(=O)N1CCCC(N1)C(=O)OCC(C)(C)C2 [Compound 27′, (1r,2R,3S)-N-((6^3S,4S,Z)-1^1-ethyl-1^2-(2-((S)-1-methoxyethyl)-5-(5-((S)-4-methylmorpholin-2-yl)isoxazol-3-yl)pyridin-3-yl)-10,10-dimethyl-5,7-dioxo-6^1,6^2,6^3,6^4,6^5,6^6-hexahydro-1^1H-8-oxa-2(4,2)-thiazola-1(5,3)-indola-6(1,3)-pyridazinacycloundecaphane-4-yl)-2,3-dimethylcyclopropane-1-carboxamide] |  |  | 7.7 nM | 50 nM |
| CCn1c(-c2cc(-c3ccc(CN4CCC(F)(F)CC4)cc3)cnc2C(C)OC)c2c3cc(ccc31)-c1csc(n1)CC(NC(=O)C1CC1C)C(=O)N1CCCC(N1)C(=O)OCC(C)(C)C2 [Compound 7′, (1S,2S)-N-((6^3S,4S,Z)-1^2-(5-(4-((4,4-difluoropiperidin-1-yl)methyl)phenyl)-2-((S)-1-methoxyethyl)pyridin-3-yl)-1^1-ethyl-10,10-dimethyl-5,7-dioxo-6^1,6^2,6^3,6^4,6^5,6^6-hexahydro-1^1H-8-oxa-2(4,2)-thiazola-1(5,3)-indola-6(1,3)-pyridazinacycloundecaphane-4-yl)-2-methylcyclopropane-1-carboxamide] |  |  | > 10000 nM |  |
| CCn1c(-c2cc(-c3cc(C4COCCN4C)on3)cnc2C(C)OC)c2c3cc(ccc31)-c1csc(n1)CC(NC(=O)C1C(C)C1C)C(=O)N1CCCC(N1)C(=O)OCC(C)(C)C2 [Compound 33′, (1r,2R,3S)-N-((6^3S,4S,Z)-1^1-ethyl-1^2-(2-((S)-1-methoxyethyl)-5-(5-((R)-4-methylmorpholin-3-yl)isoxazol-3-yl)pyridin-3-yl)-10,10-dimethyl-5,7-dioxo-6^1,6^2,6^3,6^4,6^5,6^6-hexahydro-1^1H-8-oxa-2(4,2)-thiazola-1(5,3)-indola-6(1,3)-pyridazinacycloundecaphane-4-yl)-2,3-dimethylcyclopropane-1-carboxamide] |  |  | 32 nM |  |
| (1S,2S)-N-((6^3S,4S,Z)-1^1-ethyl-1^2-(2-((S)-1-methoxyethyl)-5-(1-(2-morpholinoethyl)-1H-pyrazol-4-yl)pyridin-3-yl)-10,10-dimethyl-5,7-dioxo-6^1,6^2,6^3,6^4,6^5,6^6-hexahydro-1^1H-8-oxa-2(4,2)-thiazola-1(5,3)-indola-6(1,3)-pyridazinacycloundecaphane-4-yl)-2-methylcyclopropane-1-carboxamide [Compound 15′] |  |  | 1020 nM |  |
| CCn1c(-c2cc(-c3cccc(CN4CCOCC4)c3)cnc2C(C)OC)c2c3cc(ccc31)-c1csc(n1)CC(NC(=O)C1CC1C)C(=O)N1CCCC(N1)C(=O)OCC(C)(C)C2 [Compound 9′, (1S,2S)-N-((6^3S,4S,Z)-1^1-ethyl-1^2-(2-((S)-1-methoxyethyl)-5-(3-(morpholinomethyl)phenyl)pyridin-3-yl)-10,10-dimethyl-5,7-dioxo-6^1,6^2,6^3,6^4,6^5,6^6-hexahydro-1^1H-8-oxa-2(4,2)-thiazola-1(5,3)-indola-6(1,3)-pyridazinacycloundecaphane-4-yl)-2-methylcyclopropane-1-carboxamide] |  |  | 836 nM |  |
